Experimental data from PubChem BioAssay AID330 (DTP/NCI, 2004).
Where “and” joins values, the source holds several entries; their conditions need not be identical. Equal values may be shown once. Inconclusive results and toxic doses are left out.

Test system: P388 leukemia ip, CD2F1 mice, survival T/C
Experiment: NCI In Vivo Anticancer Drug Screen. Data for tumor model P388 Leukemia (intraperitoneal) in CD2F1 (CDF1) mice
Conditions: endpoint: median survival time, higher = longer survival
How it was run: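 Mice carrying the transplanted tumor received test compound or vehicle. Survival was recorded in each group, and the value is the treated-group measurement divided by that of the vehicle-treated control group.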

CCCCC(=O)OCC(=O)[C@]1(O)Cc2c(O)c3c(c(O)c2[C@@H](OC2CC(NC(=O)C(F)(F)F)C(O)C(C)O2)C1)C(=O)c1c(OC)cccc1C3=O (some centres not stated)
T/C (dose: 0.5 mg/kg/injection, schedule: Q04DX003 (ip), vehicle: saline with Tween-80): 98 % of control | T/C (dose: 1.0 mg/kg/injection, schedule: Q04DX003 (ip), vehicle: saline with Tween-80): 104 % of control | T/C (dose: 1.4 mg/kg/injection, schedule: Q01DX009 (ip), vehicle: clinical formulation): 124 % of control | T/C (dose: 2.0 mg/kg/injection, schedule: Q04DX003 (ip), vehicle: saline with Tween-80): 99 % of control and 101 % of control | T/C (dose: 4.0 mg/kg/injection, schedule: Q04DX003 (ip), vehicle: saline with Tween-80): 100 % of control and 101 % of control and 105 % of control | T/C (dose: 6.48 mg/kg/injection, schedule: Q01DX009 (ip), vehicle: clinical formulation): 162 % of control | T/C (dose: 8.0 mg/kg/injection, schedule: Q04DX003 (ip), vehicle: saline with Tween-80): 114 % of control and 121 % of control and 97 % of control | T/C (dose: 9.38 mg/kg/injection, schedule: Q04DX003 (ip), vehicle: clinical formulation): 111 % of control | T/C (dose: 10.8 mg/kg/injection, schedule: Q01DX009 (ip), vehicle: clinical formulation): 189 % of control and 193 % of control | T/C (dose: 13.0 mg/kg/injection, schedule: Q04DX003 (ip), vehicle: clinical formulation): 124 % of control | T/C (dose: 16.0 mg/kg/injection, schedule: Q04DX003 (ip), vehicle: saline with Tween-80): 121 % of control | T/C (dose: 18.0 mg/kg/injection, schedule: Q01DX009 (ip), vehicle: clinical formulation): 224 % of control and 232 % of control | T/C (dose: 18.75 mg/kg/injection, schedule: Q04DX003 (ip), vehicle: clinical formulation): 118 % of control | T/C (dose: 30.0 mg/kg/injection, schedule: Q01DX004 (ip), vehicle: distilled water + Tween-80): 196 % of control and 333 % of control | T/C (dose: 30.0 mg/kg/injection, schedule: Q01DX009 (ip), vehicle: clinical formulation): 303 % of control and 560 % of control | T/C (dose: 32.4 mg/kg/injection, schedule: Q04DX003 (ip), vehicle: clinical formulation): 156 % of control | T/C (dose: 36.0 mg/kg/injection, schedule: Q04DX003 (ip), vehicle: clinical formulation): 163 % of control | T/C (dose: 37.5 mg/kg/injection, schedule: Q04DX003 (ip), vehicle: clinical formulation): 123 % of control | T/C (dose: 37.5 mg/kg/injection, schedule: Q04DX003 (ip), vehicle: saline with Tween-80): 156 % of control | T/C (dose: 37.5 mg/kg/injection, schedule: Q04DX003 (iv), vehicle: saline with Tween-80): 120 % of control | T/C (dose: 40.0 mg/kg/injection, schedule: Q01DX004 (ip), vehicle: distilled water + Tween-80): 171 % of control | T/C (dose: 50.0 mg/kg/injection, schedule: Q01DX004 (ip), vehicle: distilled water + Tween-80): 91 % of control | T/C (dose: 50.0 mg/kg/injection, schedule: Q01DX009 (ip), vehicle: clinical formulation): 110 % of control | T/C (dose: 54.0 mg/kg/injection, schedule: Q04DX003 (ip), vehicle: clinical formulation): 193 % of control | T/C (dose: 60.0 mg/kg/injection, schedule: Q01DX004 (ip), vehicle: distilled water + Tween-80): 89 % of control | T/C (dose: 60.0 mg/kg/injection, schedule: Q04DX003 (ip), vehicle: clinical formulation): 219 % of control | T/C (dose: 64.0 mg/kg/injection, schedule: Q04DX003 (ip), vehicle: saline with Tween-80): 153 % of control and 161 % of control | T/C (dose: 75.0 mg/kg/injection, schedule: Q04DX003 (ip), vehicle: clinical formulation): 189 % of control | T/C (dose: 75.0 mg/kg/injection, schedule: Q04DX003 (ip), vehicle: saline with Tween-80): 180 % of control | T/C (dose: 75.0 mg/kg/injection, schedule: Q04DX003 (iv), vehicle: saline with Tween-80): 106 % of control | T/C (dose: 90.0 mg/kg/injection, schedule: Q04DX003 (ip), vehicle: clinical formulation): 219 % of control | T/C (dose: 100.0 mg/kg/injection, schedule: Q04DX003 (ip), vehicle: clinical formulation): 242 % of control | T/C (dose: 128.0 mg/kg/injection, schedule: Q04DX003 (ip), vehicle: saline with Tween-80): 168 % of control and 180 % of control and 201 % of control | T/C (dose: 150.0 mg/kg/injection, schedule: Q04DX003 (ip), vehicle: saline with Tween-80): 243 % of control and 270 % of control | T/C (dose: 150.0 mg/kg/injection, schedule: Q04DX003 (iv), vehicle: saline with Tween-80): 153 % of control | T/C (dose: 256.0 mg/kg/injection, schedule: Q04DX003 (ip), vehicle: saline with Tween-80): 173 % of control and 190 % of control and 257 % of control | T/C (dose: 300.0 mg/kg/injection, schedule: Q04DX003 (ip), vehicle: clinical formulation): 87 % of control | T/C (dose: 300.0 mg/kg/injection, schedule: Q04DX003 (ip), vehicle: saline with Tween-80): 252 % of control | T/C (dose: 300.0 mg/kg/injection, schedule: Q04DX003 (iv), vehicle: saline with Tween-80): 222 % of control | T/C (dose: 512.0 mg/kg/injection, schedule: Q04DX003 (ip), vehicle: saline with Tween-80): 117 % of control | T/C (dose: 600.0 mg/kg/injection, schedule: Q04DX003 (iv), vehicle: saline with Tween-80): 169 % of control | T/C (dose: 1024.0 mg/kg/injection, schedule: Q04DX003 (ip), vehicle: saline with Tween-80): 107 % of control
